Reference: patent US11654195B2, “Eco-friendly smart photosensitizer and photo-stem cell therapy product comprising same” (priority 2019, dated 2023)

Tested on: HeLa cells
Experiment: Confirmation of location of nanosphere in cells (confocal microscope)
Assay type: cell-based
Conditions: HeLa cells 1×10^5, 1.25 μg/ml
Protocol: In order to observe cancer cell targeting of nanospheres of the biocompatible material sample in which the hydroxypropyl methylcellulose of Example 1 was bonded to porfimer sodium by an ester bond, that is, the accumulation location and accumulation rate in cancer cells, HeLa cells (1×10^5 cells) were treated with each of 1.25 μg/ml of the nanospheres of the biocompatible material sample in which the hydroxypropyl methylcellulose prepared in Example 1 was bonded to porfimer sodium by an ester bond and 1.25 μg/ml of unmodified porfimer sodium as a control and then the location in cells over time was observed using a confocal microscope.

Substance: porfimer sodium [unmodified porfimer sodium]
- location in cells over time: located at different sites in cells
